Experimental data taken from patent US20250114374A1, “BCL-2 INHIBITORS” (Newave Pharmaceutical Inc., priority 2021, published 2025).
Counter-ions that a name gives are not always drawn.

Each molecule was assayed on RS4; 11 with G101V mutation (assay: In vitro anti-proliferation assay (ATPlite luminescence) in BCL-2-dependent ALL cell line RS4;11 with G101V mutation). Details: cellular anti-proliferative IC50, about 72 hours, medium with 10% FBS, ATPlite; read-out: RS411-G101V IC50.
Assay type: cell-based
Procedure: Cell antiproliferation was assayed by PerkinElmer ATPlite™ Luminescence Assay System. Briefly, the various test cancer cell lines were plated at a density of about 1×10^4 cells per well in Costar 96-well plates, and were incubated with different concentrations of compounds for about 72 hours in medium supplemented with 10% FBS. One lyophilized substrate solution vial was then reconstituted by adding 5 mL of substrate buffer solution, and was agitated gently until the solution was homogeneous. About 50 μL of mammalian cell lysis solution was added to 100 μL of cell suspension per well of a microplate, and the plate was shaken for about five minutes in an orbital shaker at ˜700 rpm. This procedure was used to lyse the cells and to stabilize the ATP. Next, 50 μL substrate solution was added to the wells and microplate was shaken for five minutes in an orbital shaker at ˜700 rpm. Finally, the luminescence was measured by a PerkinElmer TopCount® Microplate Scintillation Counter. Such assays, carried out with a range of doses of test compounds, allowed the determination of the cellular anti-antiproliferative IC50 of the compounds of the present invention.
The following table lists the IC50 values of another study for certain compounds of the invention.

Compound	IC50
COc1ccc(CN2CCN(C3CC4(CCN(c5ccc(C(=O)NS(=O)(=O)c6ccc(NCC7CCC(C)(O)CC7)c([N+](=O)[O-])c6)c(N6c7cc8cc[nH]c8nc7O[C@H]7COCC[C@@H]76)c5)CC4)C3)[C@@H](c3ccccc3OC(C)C)C2)nc1 (stereo partly drawn) [Example 103, 2-[(3R,8S)-2,5-dioxa-9,15,17-triazatetracyclo[8.7.0.0^{3,8}.0^{12,16}]heptadeca-1(10),11,13,16-tetraen-9-yl]-4-{2-[(2S)-2-(2-isopropoxyphenyl)-4-[(5-methoxypyridin-2-yl)methyl]piperazin-1-yl]-7-azaspiro[3.5]nonan-7-yl}-N-[3-nitro-4-({[(1r,4r)-4-hydroxy-4-methylcyclohexyl]methyl}amino)benzenesulfonyl]benzamide]	35.1 nM
COc1cc(CN2CCN(C3CC4(CCN(c5ccc(C(=O)NS(=O)(=O)c6ccc(NCC7CCC(C)(O)CC7)c([N+](=O)[O-])c6)c(N6c7cc8cc[nH]c8nc7O[C@H]7COCC[C@@H]76)c5)CC4)C3)[C@@H](c3ccccc3OC(C)C)C2)cnc1OC (stereo partly drawn) [Example 104, 4-{2-[(2S)-4-[(5,6-dimethoxypyridin-3-yl)methyl]-2-(2-isopropoxyphenyl)piperazin-1-yl]-7-azaspiro[3.5]nonan-7-yl}-2-[(3R,8S)-2,5-dioxa-9,15,17-triazatetracyclo[8.7.0.0^{3,8}.0^{12,16}]heptadeca-1(10),11,13,16-tetraen-9-yl]-N-[3-nitro-4-({[(1r,4r)-4-hydroxy-4-methylcyclohexyl]methyl}amino)benzenesulfonyl]benzamide]	6.9 nM
COc1ccc(CN2CCN(C3CC4(CCN(c5ccc(C(=O)NS(=O)(=O)c6ccc(NC[C@H]7CC[C@](C)(O)CC7)c([N+](=O)[O-])c6)c(N6c7cc8cc[nH]c8nc7O[C@H]7COCC[C@@H]76)c5)CC4)C3)[C@@H](c3ccccc3OC(C)C)C2)nc1OC [Example 105, 4-{2-[(2S)-4-[(5,6-dimethoxypyridin-2-yl)methyl]-2-(2-isopropoxyphenyl)piperazin-1-yl]-7-azaspiro[3.5]nonan-7-yl}-2-[(3R,8S)-2,5-dioxa-9,15,17-triazatetracyclo[8.7.0.0^{3,8}.0^{12,16}]heptadeca-1(10),11,13,16-tetraen-9-yl]-N-[3-nitro-4-({[(1r,4r)-4-hydroxy-4-methylcyclohexyl]methyl}amino)benzenesulfonyl]benzamide]	19.3 nM
COc1nc(CN2CCN(C3CC4(CCN(c5ccc(C(=O)NS(=O)(=O)c6ccc(NCC7CCC(C)(O)CC7)c([N+](=O)[O-])c6)c(N6c7cc8cc[nH]c8nc7O[C@H]7COCC[C@@H]76)c5)CC4)C3)[C@@H](c3ccccc3OC(C)C)C2)ccc1C (stereo partly drawn) [Example 106, 2-[(3R,8S)-2,5-dioxa-9,15,17-triazatetracyclo[8.7.0.0^{3,8}.0^{12,16}]heptadeca-1(10),11,13,16-tetraen-9-yl]-4-{2-[(2S)-2-(2-isopropoxyphenyl)-4-[(6-methoxy-5-methylpyridin-2-yl)methyl]piperazin-1-yl]-7-azaspiro[3.5]nonan-7-yl}-N-[3-nitro-4-({[(1r,4r)-4-hydroxy-4-methylcyclohexyl]methyl}amino)benzenesulfonyl]benzamide]	32.9 nM
CC(C)Oc1ccccc1[C@H]1CN(C2CCC(C)(O)CC2)CCN1C1CC2(CCN(c3ccc(C(=O)NS(=O)(=O)c4ccc(NCC5CCC(C)(O)CC5)c([N+](=O)[O-])c4)c(N4c5cc6cc[nH]c6nc5O[C@H]5COCC[C@@H]54)c3)CC2)C1 (stereo partly drawn) [Example 108, 2-[(3R,8S)-2,5-dioxa-9,15,17-triazatetracyclo[8.7.0.0^{3,8}.0^{12,16}]heptadeca-1(10),11,13,16-tetraen-9-yl]-4-{2-[(2S)-2-(2-isopropoxyphenyl)-4-[(1r,4r)-4-hydroxy-4-methylcyclohexyl]piperazin-1-yl]-7-azaspiro[3.5]nonan-7-yl}-N-[3-nitro-4-({[(1r,4r)-4-hydroxy-4-methylcyclohexyl]methyl}amino)benzenesulfonyl]benzamide]	7.2 nM
CC(C)Oc1ccccc1[C@H]1CN(C2CCC(C)(O)CC2)CCN1C1CC2(CCN(c3ccc(C(=O)NS(=O)(=O)c4ccc(NCC5CCC(C)(O)CC5)c([N+](=O)[O-])c4)c(N4c5cc6cc[nH]c6nc5O[C@H]5COCC[C@@H]54)c3)CC2)C1 (stereo partly drawn) [Example 109, 2-[(3R,8S)-2,5-dioxa-9,15,17-triazatetracyclo[8.7.0.0^{3,8}.0^{12,16}]heptadeca-1(10),11,13,16-tetraen-9-yl]-4-{2-[(2S)-2-(2-isopropoxyphenyl)-4-[(1s,4s)-4-hydroxy-4-methylcyclohexyl]piperazin-1-yl]-7-azaspiro[3.5]nonan-7-yl}-N-[3-nitro-4-({[(1r,4r)-4-hydroxy-4-methylcyclohexyl]methyl}amino)benzenesulfonyl]benzamide]	17.2 nM
COc1nc(CN2CCN(C3CC4(CCN(c5ccc(C(=O)NS(=O)(=O)c6ccc(NCC7CCC(C)(O)CC7)c([N+](=O)[O-])c6)c(N6c7cc8cc[nH]c8nc7O[C@H]7COCC[C@@H]76)c5)CC4)C3)[C@@H](c3ccccc3OC(C)C)C2)cc2c1OCCC2(C)C (stereo partly drawn) [Example 110, 2-[(3R,8S)-2,5-dioxa-9,15,17-triazatetracyclo[8.7.0.0^{3,8}.0^{12,16}]heptadeca-1(10),11,13,16-tetraen-9-yl]-4-{2-[(2S)-2-(2-isopropoxyphenyl)-4-({8-methoxy-4,4-dimethyl-2H,3H-pyrano[2,3-c]pyridin-6-yl}methyl)piperazin-1-yl]-7-azaspiro[3.5]nonan-7-yl}-N-[3-nitro-4-({[(1r,4r)-4-hydroxy-4-methylcyclohexyl]methyl}amino)benzenesulfonyl]benzamide hydrochloride]	23.8 nM
COc1cc(CN2CCN(C3CC4(CCN(c5ccc(C(=O)NS(=O)(=O)c6ccc(NCC7CCC(C)(O)CC7)c([N+](=O)[O-])c6)c(N6c7cc8cc[nH]c8nc7O[C@H]7COCC[C@@H]76)c5)CC4)C3)[C@@H](c3ccccc3OC(C)C)C2)cnc1N1CCOC[C@H]1C (stereo partly drawn) [Example 111, 2-[(3R,8S)-2,5-dioxa-9,15,17-triazatetracyclo[8.7.0.0^{3,8}.0^{12,16}]heptadeca-1(10),11,13,16-tetraen-9-yl]-4-{2-[(2S)-2-(2-isopropoxyphenyl)-4-({5-methoxy-6-[(3R)-3-methylmorpholin-4-yl]pyridin-3-yl}methyl)piperazin-1-yl]-7-azaspiro[3.5]nonan-7-yl}-N-[3-nitro-4-({[(1r,4r)-4-hydroxy-4-methylcyclohexyl]methyl}amino)benzenesulfonyl]benzamide]	10.7 nM
Cc1ccccc1[C@@H]1CN(C2CCC(C)(O)CC2)CCN1C1CC2(CCN(c3ccc(C(=O)NS(=O)(=O)c4ccc(NCC5CCC(C)(O)CC5)c([N+](=O)[O-])c4)c(N4c5cc6cc[nH]c6nc5O[C@H]5COCC[C@@H]54)c3)CC2)C1 (stereo partly drawn) [Example 112, 2-[(3R,8S)-2,5-dioxa-9,15,17-triazatetracyclo[8.7.0.0^{3,8}.0^{12,16}]heptadeca-1(10),11,13,16-tetraen-9-yl]-4-{2-[(2R)-2-(2-methylphenyl)-4-[(1r,4r)-4-hydroxy-4-methylcyclohexyl]piperazin-1-yl]-7-azaspiro[3.5]nonan-7-yl}-N-[3-nitro-4-({[(1r,4r)-4-hydroxy-4-methylcyclohexyl]methyl}amino)benzenesulfonyl]benzamide]	10.9 nM
